Measurements from ChEMBL document CHEMBL3301361, “Experimental in vitro DMPK and physicochemical data on a set of publicly disclosed compounds”.
Converted amounts (≈) assume the structure as drawn.

How the values were obtained:
[1] = physchem; settings: octan-1-ol/water
[2] = physchem; settings: pH 7.4 buffer

SMILES	logD ([1]; pH 7.4)	solubility thermodynamic [2] [µM]	logD ([1]; pH 7.4, LogD7.4)
Oc1ccc(-c2ccc(C3(O)CN4CCC3CC4)cc2)cc1 (stereo not given)	0.95	436 (≈ 129 µg/mL)	–
Cc1cnc(Nc2ccc(OCC(O)CN(C)C)cc2)nc1Nc1ccccc1 (stereo not given)	–	724 (≈ 285 µg/mL)	2
CNC(=O)c1ccc(N2C(=S)N(c3ccc(C#N)c(C(F)(F)F)c3)C(=O)C23CCC3)cc1F	3.3	1.6 (≈ 0.762 µg/mL)	–
CN(C)c1cccc2c(S(N)(=O)=O)cccc12	–	23.4 (≈ 5.86 µg/mL)	1.95
Nc1ncc(-c2cnn(C3CCNCC3)c2)cc1-c1nc2ccccc2o1	–	2.3 (≈ 0.829 µg/mL)	1.85
COc1ccc(-c2cc3c(N[C@H]4CCCNC4)ncc(C(N)=O)c3s2)cc1	–	1050 (≈ 401 µg/mL)	1.82
CC(=O)c1noc(C)c1C(=O)Nc1nccs1	–	46.8 (≈ 11.8 µg/mL)	1.94
N#Cc1nc(N2CCOCC2)nc(N2CCOCC2)n1	1.51	77.6 (≈ 21.4 µg/mL)	–
CC(=O)Nc1nc(-c2cccs2)cs1	2.77	100 (≈ 22.4 µg/mL)	–
O=S(=O)(Nc1ccc(S(=O)(=O)Nc2nccs2)cc1)c1ccc2c(c1)OCCO2	–	0.7 (≈ 0.317 µg/mL)	1.97
CC(=O)Nc1nc(-c2ccccc2)ns1	2.8	182 (≈ 39.9 µg/mL)	–
Nc1nccc(/C=C/c2ccc(Cl)cc2)n1	3.5	8.7 (≈ 2.02 µg/mL)	–
CSc1ccc(C(=O)C(C)(C)N2CCOCC2)cc1	3.49	52.5 (≈ 14.7 µg/mL)	–
Cc1cc(=O)oc2cc3c(cc12)CCCN3	2.7	13.8 (≈ 2.97 µg/mL)	–
FC(F)(F)c1nnc2ccc(NCc3cccnc3)nn12	–	380 (≈ 112 µg/mL)	2.06
CC(C)(C)c1cc2nc3c(c(O)n2n1)CN(Cc1ccccc1)C3=O	–	25.1 (≈ 8.44 µg/mL)	1.9
CCN(CC)c1ncnc2c1ncn2Cc1c(Cl)cccc1Cl	1.25	2.3 (≈ 0.806 µg/mL)	–
CCc1cccc2c(C#N)cn(CC(=O)NCCOC)c12	–	37.2 (≈ 10.6 µg/mL)	1.95
CCn1c2ccccc2c2cc(NC(C)=O)ccc21	3.5	5.6 (≈ 1.41 µg/mL)	–
Cc1ccnc2nc(C(=O)Nc3nccs3)nn12	0.31	339 (≈ 88.2 µg/mL)	–
O=C(NCc1ccncc1)c1ccc(Oc2ccc(C#C[C@]3(O)CN4CCC3CC4)cc2)cc1	2.42	302 (≈ 137 µg/mL)	–

SMILES	logD ([1]; pH 7.4)	solubility thermodynamic [2] [µM]	logD ([1]; pH 7.4, LogD7.4)
Cc1ccn2c(NC(=O)c3ccccc3)c(-c3cccs3)nc2c1	2.87	1.1 (≈ 0.367 µg/mL)	–
Nc1cc(-c2ccccc2)ncn1	–	372 (≈ 63.6 µg/mL)	1.91
O=C(NCc1ccncc1)c1ccc(Oc2ccc(C#CC3(O)CN4CCC3CC4)cc2)cc1 (stereo not given)	2.48	269 (≈ 122 µg/mL)	–
O=C(NCc1ccncc1)c1ccc(Oc2ccc(C#C[C@@]3(O)CN4CCC3CC4)cc2)cc1	2.31	107 (≈ 48.6 µg/mL)	–
CS(=O)(=O)c1ccc(Oc2ccc(C#C[C@]3(O)CN4CCC3CC4)cc2)cc1	1.51	457 (≈ 182 µg/mL)	–
O=C(NC1CCCS(=O)(=O)C1)c1ccc(Oc2ccc(C#C[C@]3(O)CN4CCC3CC4)cc2)cc1 (stereo not given in full)	1.4	162 (≈ 80.2 µg/mL)	–
O=C(Nc1nc2c(=O)[nH]cnc2s1)c1ccccc1	–	7.4 (≈ 2.01 µg/mL)	1.94
Cc1cc(S(=O)(=O)Nc2nc(Nc3ccc(Cl)cc3)n[nH]2)c(S)cc1Cl	–	87.1 (≈ 37.5 µg/mL)	2.09
Cc1ccc(C(=O)Nc2ccon2)cc1-n1cnc2ccc(N3CCN(C)CC3)cc2c1=O	–	57.5 (≈ 25.6 µg/mL)	1.87
Cc1cc(CNc2nccc(Nc3cc(C)[nH]n3)n2)on1	–	813 (≈ 232 µg/mL)	1.86
COc1ccc(-c2csc(NC(=O)c3c(C)noc3C)n2)cc1OC	3.16	2 (≈ 0.719 µg/mL)	–
CCN(CCO)CCCOc1cc2ncnc(Nc3cc(CC(=O)Nc4cccc(F)c4F)[nH]n3)c2cc1OC	–	3 (≈ 1.67 µg/mL)	1.94
O=C(Cc1cc(Nc2ncnc3cc(OCCCN4CCC[C@@H]4CO)ccc23)n[nH]1)Nc1cccc(F)c1F	–	141 (≈ 76 µg/mL)	2.06
CC1(c2nc(N3CCOCC3)ncc2C(=O)N[C@H]2C3CC4CC2C[C@](O)(C4)C3)CC1	–	407 (≈ 168 µg/mL)	2
CCN(CCN(C)C)S(=O)(=O)c1ccc(-c2cnc(N)c(C(=O)Nc3cccnc3)n2)cc1	–	490 (≈ 230 µg/mL)	2
Cc1nc(C)c(-c2ccc3c(c2)CC[C@]32CC[C@@H](Cc3nnn[nH]3)CC2)nc1C(N)=O	–	77.6 (≈ 32.4 µg/mL)	2
COc1ccc(C(=O)CS(=O)(=O)c2ccccc2)cc1	–	53.7 (≈ 15.6 µg/mL)	1.96
c1nc(N2CCCCC2)c2nc[nH]c2n1	–	501 (≈ 102 µg/mL)	1.84
CC12CCC(=O)C=C1CCC1C2CCC2(C)C(O)CCC12 (stereo not given)	3.3	40.7 (≈ 11.7 µg/mL)	–
COc1cc(C(=O)O)ccc1Cn1ccc2ccc(NC(=O)OC3CCCC3)cc21	–	186 (≈ 76.1 µg/mL)	2.1
Oc1cc(-c2ccccc2)nc2ccnn12	1.3	813 (≈ 172 µg/mL)	–

SMILES	logD ([1]; pH 7.4)	solubility thermodynamic [2] [µM]	logD ([1]; pH 7.4, LogD7.4)
CS(=O)(=O)Nc1cccc(NC(=O)CN2CCN(C(=O)C[C@H](N)Cc3ccc(F)c(F)c3)[C@H](Cc3ccccc3)C2)c1	–	661 (≈ 396 µg/mL)	2.06
O=C(CS(=O)(=O)c1ccccc1)c1ccccc1	–	234 (≈ 61 µg/mL)	1.86
COc1cc2c(Nc3cc(CC(=O)Nc4cccc(F)c4F)[nH]n3)ncnc2cc1OCCCN1CCC[C@@H]1CO	–	813 (≈ 461 µg/mL)	1.96
Cc1c(Cl)cccc1S(=O)(=O)Nc1nc(CC(=O)N2CCN(C)CC2)cs1	0.57	1100 (≈ 470 µg/mL)	–
Cc1nc(C)c(C(=O)N[C@@H](Cc2cccc(Cl)c2)C(=O)NCC#N)s1	–	57.5 (≈ 21.7 µg/mL)	2
Cc1nc(-c2ccccc2)c(-c2ccc(CN3CCC(n4c(=O)[nH]c5ccccc54)CC3)cc2)[nH]c1=O	3.9	27.5 (≈ 13.5 µg/mL)	–
CCS(=O)(=O)c1ccc(Oc2cc3nc(-c4ccccn4)[nH]c3cc2CN2C(=O)CCC2=O)cc1	–	30.2 (≈ 14.8 µg/mL)	2
CC1(C)SCCN(S(=O)(=O)c2ccc(Oc3ccncc3)cc2)[C@H]1C(=O)NO [PRINOMASTAT]	–	69.2 (≈ 29.3 µg/mL)	–
COc1cc(NS(=O)(=O)c2ccc(N)cc2)nc(OC)n1 [SULFADIMETHOXINE]	–	1290 (≈ 400 µg/mL)	–
CNC(=O)c1cc(COc2nnc(Nc3ccc(Cl)cc3)c3ccoc23)ccn1 [TELATINIB]	–	0.3 (≈ 0.123 µg/mL)	–
O=C1NC(=O)C2(CCc3ccccc3C2)N1 (stereo not given) [TETRANTOIN]	–	224 (≈ 48.4 µg/mL)	–
O=C1CCC(N2C(=O)c3ccccc3C2=O)C(=O)N1 (stereo not given) [THALIDOMIDE]	–	155 (≈ 40 µg/mL)	–
O=C(Nc1ccccc1)Nc1cnns1 [THIDIAZURON]	–	178 (≈ 39.2 µg/mL)	–
Cc1c(Cc2ccc3ccccc3n2)c2cc(F)ccc2n1CC(=O)O [TIMAPIPRANT]	–	112 (≈ 39.1 µg/mL)	–
Cn1cncc1[C@@](N)(c1ccc(Cl)cc1)c1ccc2c(c1)c(-c1cccc(Cl)c1)cc(=O)n2C [TIPIFARNIB]	–	9.5 (≈ 4.65 µg/mL)	–
COc1cc2nccc(Oc3ccc(NC(=O)Nc4cc(C)on4)c(Cl)c3)c2cc1OC [TIVOZANIB]	–	9.3 (≈ 4.23 µg/mL)	–
O=C(CCCCCCC(=O)Nc1ccccc1)NO [VORINOSTAT]	–	1230 (≈ 325 µg/mL)	–
c1ccc2c(c1)Cc1ccccc1O2 [XANTHENE]	–	4.4 (≈ 0.802 µg/mL)	–
O=c1c2ccccc2oc2ccccc12 [XANTHONE]	–	20 (≈ 3.92 µg/mL)	–
